Measured values from patent US8604046B2, “Substituted piperidine spiro pyrrolidinone and piperidinone, preparation and therapeutic use thereof” (Sanofi, priority 2008, dated 2013).
pKi: −log10 of the molar value.

Experiments:
rhesus H3 receptor [1] = molecular target: T1, rhesus H3 receptor (Macaca mulatta, UniProt Q865E1); assay: GTPγS radioligand binding assay, inhibition of rhesus H3 constitutive functional activity (inverse agonism); type: biochemical, rhesus monkey (Macacca Mulatta); set-up: concentration or dose not given beside the values; conditions: rhesus H3 cell membranes, relative to basal levels
Experimental: (§1) Rhesus H3 membranes were prepared from the Flp-In T-REx 293 Cell Line (Invitrogen) stably transfected with pcDNA5/FRT/TO (Invitrogen) containing the rhesus monkey (Macacca Mulatta) 445 amino acid H3 receptor. (Genbank #AY231164). Stably transfected cultures were amplified in tissue culture flasks by standard tissue culture methods and induced to express rhesus H3 by exposure to 500 ng/ml tetracycline (Cellgro) for 24 hours. After induction, cells were dissociated from flasks utilizing Cell Stripper (Cellgro). Cells were centrifuged (1K×g, 5 min) and pellet frozen in an ethanol-dry ice bath to disrupt cell membranes. Frozen cell pellet was re-suspended in 5 mM HEPES (pH 7.4, Invitrogen) at 10 ml/1000 cm2 of harvested cells. The cell suspension was drawn through an 18 gauge needle (2-3×) followed by a 23 gauge needle (2-3×) to further disrupt cell membranes. The cell suspension was centrifuged (40K×g, 30 min). Cell membrane pellet was re-suspended in 5 mM HEPES (pH 7.4, Invitrogen) at a final protein concentration of 10 mg/ml. Rhesus H3 membranes were stored under liquid nitrogen prior to use in [3H]-Methylhistamine and GTP S radioligand binding assays.

rhesus H3 receptor [2] = molecular target: T1, rhesus H3 receptor; assay: Rhesus H3 [3H]-methylhistamine radioligand binding assay; set-up: species or system rhesus monkey (Macacca Mulatta); conditions: [3H]-Methylhistamine 2 nM, rhesus H3 membranes, WGA SPA beads, Cheng-Prusoff
Experimental: as §1
Rhesus H3 radioligand binding assay was performed using rhesus H3 receptor membranes (prepared as described above), [3H]-Methylhistamine (Perkin Elmer) and WGA SPA beads (wheat germ agglutinin scintillation proximity assay) beads (Amersham). The assay was performed in 96-well Opti-Plates (Packard). Each reaction contained 50 μl rhesus H3 membranes (20-30 μg total protein), 50 μl WGA SPA beads (0.1 μg) and 50 μl of 83 Ci/mmol [^3H]-Methylhistamine (final concentration 2 nM) and 50 μl of tested compound. The compounds of this invention and/or vehicle were diluted with binding buffer from 10 mM DMSO stocks. Assay plates were sealed with TopSeal (Perkin Elmer) and mixed on shaker (25° C., 1 hour). Assay plates were read on TopCount scintillation counter (Packard). Results were analyzed by Hill transformation and Ki values were determined by Cheng-Prusoff equation.

T1 sequence (Q865E1 1-445): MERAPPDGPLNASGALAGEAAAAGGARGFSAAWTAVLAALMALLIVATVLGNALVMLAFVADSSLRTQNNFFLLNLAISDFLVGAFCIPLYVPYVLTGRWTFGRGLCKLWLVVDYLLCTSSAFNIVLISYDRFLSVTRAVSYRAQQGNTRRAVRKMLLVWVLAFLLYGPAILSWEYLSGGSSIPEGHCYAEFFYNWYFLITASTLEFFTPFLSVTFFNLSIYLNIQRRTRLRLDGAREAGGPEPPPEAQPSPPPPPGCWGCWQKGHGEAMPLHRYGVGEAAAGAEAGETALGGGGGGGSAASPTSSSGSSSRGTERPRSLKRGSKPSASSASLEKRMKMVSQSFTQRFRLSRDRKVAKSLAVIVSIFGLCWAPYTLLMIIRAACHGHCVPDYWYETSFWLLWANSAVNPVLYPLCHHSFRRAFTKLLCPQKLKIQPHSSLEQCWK

Compound | Inverse Agonism: % inhibition of Basal GTPγS binding in Rhesus H3 (rhesus H3 receptor [1]) | pKi (rhesus H3 receptor [2])
Cc1cc(N2CC[C@H](N3CCC[C@H]3C)C2)ccc1N1CCC2(CCN(C(=O)OC(C)(C)C)CC2)C1=O [Example 1, 2-[2-Methyl-4-((2R,3′S)-2-methyl-[1,3′]bipyrrolidinyl-1′-yl)-phenyl]-1-oxo-2,8-diaza-spiro[4.5]decane-8-carboxylic acid tert-butyl ester] | −24% | 6.88
Cc1cc(N2CC[C@@H](N3CCC[C@H]3C)C2)ccc1N1CCC2(CCN(C(=O)OC(C)(C)C)CC2)C1=O [Example 2, 2-[2-Methyl-4-((2R,3′R)-2-methyl-[1,3′]bipyrrolidinyl-1′-yl)-phenyl]-1-oxo-2,8-diaza-spiro[4.5]decane-8-carboxylic acid tert-butyl ester] | −30% | 6.61
Cc1cc(N2CC[C@@H](N3CCC[C@@H]3C)C2)ccc1N1CCC2(CCN(C(=O)OC(C)(C)C)CC2)C1=O [Example 3, 2-[2-Methyl-4-((2S,3′R)-2-methyl-[1,3′]bipyrrolidinyl-1′-yl)-phenyl]-1-oxo-2,8-diaza-spiro[4.5]decane-8-carboxylic acid tert-butyl ester] | −23% | 8.15
Cc1cc(N2CC[C@H](N3CCC[C@@H]3C)C2)ccc1N1CCC2(CCN(C(=O)OC(C)(C)C)CC2)C1=O [Example 4, 2-[2-Methyl-4-((2S,3′S)-2-methyl-[1,3′]bipyrrolidinyl-1′-yl)-phenyl]-1-oxo-2,8-diaza-spiro[4.5]decane-8-carboxylic acid tert-butyl ester] | −31% | 7.37
Cc1cc(N2CCC(N3CCCC3C)C2)ccc1N1CCC2(CCN(C(=O)OC(C)(C)C)CC2)C1=O (stereo not shown) [Example 5, 2-[2-Methyl-4-(2-methyl-[1,3′]bipyrrolidinyl-1′-yl)-phenyl]-1-oxo-2,8-diaza-spiro[4.5]decane-8-carboxylic acid tert-butyl ester] | −13% | 7.74
Cc1cc(N2CC[C@H](N3CCC[C@@H]3C)C2)ccc1N1CCC2(CCNCC2)C1=O [Example 6, 2-[2-Methyl-4-((2S,3′S)-2-methyl-[1,3′]bipyrrolidinyl-1′-yl)-phenyl]-2,8-diaza-spiro[4.5]decan-1-one] | −22% | 7.96
Cc1cc(N2CC[C@@H](N3CCC[C@H]3C)C2)ccc1N1CCC2(CCNCC2)C1=O.Cl [Example 7, 2-[2-Methyl-4-((2R,3′R)-2-methyl-[1,3′]bipyrrolidinyl-1′-yl)-phenyl]-2,8-diaza-spiro[4.5]decan-1-one Hydrochloride] | −22% | 7.82
Cc1cc(N2CC[C@H](N3CCC[C@H]3C)C2)ccc1N1CCC2(CCNCC2)C1=O.Cl [Example 8, 2-[2-Methyl-4-((2R,3′S)-2-methyl-[1,3′]bipyrrolidinyl-1′-yl)-phenyl]-2,8-diaza-spiro[4.5]decan-1-one Hydrochloride] | −26% | 9.10
Cc1cc(N2CC[C@@H](N3CCC[C@@H]3C)C2)ccc1N1CCC2(CCNCC2)C1=O.Cl [Example 9, 2-[2-Methyl-4-((2S,3′R)-2-methyl-[1,3′]bipyrrolidinyl-1′-yl)-phenyl]-2,8-diaza-spiro[4.5]decan-1-one Hydrochloride] | −35% | 9.22
Cc1cc(N2CC[C@H](N3CCC[C@H]3C)C2)ccc1N1CCC2(CCN(CC3CCCC3)CC2)C1=O [Example 10, 8-Cyclopentyl methyl-2-[2-methyl-4-((2R,3′S)-2-methyl-[1,3′]bipyrrolidinyl-1′-l)-phenyl]-2,8-diaza-spiro[4.5]decan-1-one] | −26% | 7.92
Cc1cc(N2CC[C@@H](N3CCC[C@H]3C)C2)ccc1N1CCC2(CCN(CC3CCCC3)CC2)C1=O [Example 11, 8-Cyclopentylmethyl-2-[2-methyl-4-((2R,3′R)-2-methyl-[1,3′]bipyrrolidinyl-1′-l)-phenyl]-2,8-diaza-spiro[4.5]decan-1-one] | −29% | 7.66
Cc1cc(N2CC[C@@H](N3CCC[C@@H]3C)C2)ccc1N1CCC2(CCN(CC3CCCC3)CC2)C1=O [Example 12, 8-Cyclopentylmethyl-2-[2-methyl-4-((2S,3′R)-2-methyl-[1,3′]bipyrrolidinyl-1′-l)-phenyl]-2,8-diaza-spiro[4.5]decan-1-one] | −20% | 9.10
Cc1cc(N2CC[C@H](N3CCC[C@@H]3C)C2)ccc1N1CCC2(CCN(CC3CCCC3)CC2)C1=O [Example 13, 8-Cyclopentylmethyl-2-[2-methyl-4-((2S,3′S)-2-methyl-[1,3′]bipyrrolidinyl-1′-l)-phenyl]-2,8-diaza-spiro[4.5]decan-1-one] | −37% | 9.10
Cc1cc(N2CCC(N3CCCC3C)C2)ccc1N1CCC2(CCN(CC3CCCC3)CC2)C1=O (stereo not shown) [Example 14, 8-Cyclopentylmethyl-2-[2-methyl-4-(2-methyl-[1,3′]bipyrrolidinyl-1′-l)-phenyl]-2,8-diaza-spiro[4.5]decan-1-one] | −31% | 8.25
Cc1cc(N2CC[C@H](N3CCC[C@H]3C)C2)ccc1N1CCC2(CCN(C(=O)c3ccc(OC(F)(F)F)cc3)CC2)C1=O [Example 15, 2-[2-Methyl-4-((2R,3′S)-2-methyl-[1,3′]bipyrrolidinyl-1′-yl)-phenyl]-8-(4-trifluoromethoxy-benzoyl)-2,8-diaza-spiro[4.5]decan-1-one] | −14% | 6.93
Cc1cc(N2CC[C@@H](N3CCC[C@H]3C)C2)ccc1N1CCC2(CCN(C(=O)c3ccc(OC(F)(F)F)cc3)CC2)C1=O [Example 16, 2-[2-Methyl-4-((2R,3′R)-2-methyl-[1,3′]bipyrrolidinyl-1′-yl)-phenyl]-8-(4-trifluoromethoxy-benzoyl)-2,8-diaza-spiro[4.5]decan-1-one] | −13% | 7.00
Cc1cc(N2CC[C@@H](N3CCC[C@@H]3C)C2)ccc1N1CCC2(CCN(C(=O)c3ccc(OC(F)(F)F)cc3)CC2)C1=O [Example 17, 2-[2-Methyl-4-((2S,3′R)-2-methyl-[1,3′]bipyrrolidinyl-1′-yl)-phenyl]-8-(4-trifluoromethoxy-benzoyl)-2,8-diaza-spiro[4.5]decan-1-one] | −9% | 8.85
Cc1cc(N2CCC(N3CCCC3C)C2)ccc1N1CCC2(CCN(C(=O)c3ccc(OC(F)(F)F)cc3)CC2)C1=O (stereo not shown) [Example 18, 2-[2-Methyl-4-(2-methyl-[1,3′]bipyrrolidinyl-1′-yl)-phenyl]-8-(4-trifluoromethoxy-benzoyl)-2,8-diaza-spiro[4.5]decan-1-one] | −10% | 8.21
Cc1cc(N2CC[C@H](N3CCC[C@@H]3C)C2)ccc1N1CCC2(CCN(C(=O)c3ccc(OC(F)(F)F)cc3)CC2)C1=O [Example 19, 2-[2-Methyl-4-((2S,3′S)-2-methyl-[1,3′]bipyrrolidinyl-1′-yl)-phenyl]-8-(4-trifluoromethoxy-benzoyl)-2,8-diaza-spiro[4.5]decan-1-one] | −19% | 8.85
Cc1cc(N2CC[C@H](N3CCC[C@@H]3C)C2)ccc1N1CCCC2(CCN(C(=O)OC(C)(C)C)CC2)C1=O [Example 20, 2-[2-Methyl-4-((2S,3′S)-2-methyl-[1,3′]bipyrrolidinyl-1′-yl)-phenyl]-1-oxo-2,9-diaza-spiro[5.5]undecane-9-carboxylic acid tert-butyl ester] | −18% | 8.17
C[C@H]1CCCN1[C@H]1CCN(c2ccc(N3CCCC4(CCN(C(=O)OC(C)(C)C)CC4)C3=O)cc2)C1 [Example 21, 2-[4-((2S,3′S)-2-Methyl-[1,3′]bipyrrolidinyl-1′-yl)-phenyl]-1-oxo-2,9-diaza-spiro[5.5]undecane-9-carboxylic acid tert-butyl ester] | −28% | 8.14
C[C@H]1CCCN1C1CCN(c2ccc(N3CCC4(CCN(C(=O)OC(C)(C)C)CC4)C3=O)c(F)c2)CC1 [Example 40, 2-{4-[4-(2S-2-Methyl-pyrrolidin-1-yl)-piperidin-1-yl]-2-fluoro-phenyl}-1-oxo-2,8-diaza-spiro[4.5]decane-8-carboxylic acid tert-butyl ester] | −21% | –
